What was measured:
NCI-H69 cells = test: FACS-based (DRAQ7) viability assay; assay type: cell-based, human
Description: […] Etoposide, SB203580 and MK2.III were all dissolved in 0.2% of DMSO before use. Cells treated only with the carrier molecule DMSO (0.2%) served as a control.
Viability analysis was performed by staining with the […], stoichiometric DNA stain DRAQ7 (640 or 633 nm excitation and 670 nm emission; Biostatus Limited). After 48-h treatment with DNA damaging agents and/or inhibitors, cells were washed once with RPMI 1640 and resuspended in 1 ml culture media at a concentration of less than 5 × 10^5/ ml. Cells were stained with 20 µM of DRAQ7 and incubated at 37 °C for 10 min before FACS Calibur cytometer analysis. Fluorescent signals were amplified using linear mode. Cell cycle analysis was performed either by staining DRAQ7 or Propidium Iodide (PI). Cells were stained with 20 µM of DRAQ7 and incubated at 37 °C for 10 min before analysis on a FACSCalibur cytometer. Propidium Iodide (PI, excited with 488 nm laser, collected with 585/52 bandpass filter) was used in the large-scale experiments. Samples were then fixed with 70% EtOH following the viability assay and stored at 4 °C overnight before the experiment. After fixation with 70% EtOH (added drop-wise) for 24 h, samples were centrifuged into the pellet and then washed twice with ice-cold PBS. The supernatant was discarded and pellets were resuspended in 100 µl of RNase A (100 µg/ml) and 400 µl of PI ([…] in PBS). Analysis of flow cytometry data was performed using FlowJo software. Untreated, unstained cells were used as a negative control to determine the location of viable cells on the dot plots. Events below a threshold size were interpreted as cellular debris and were removed from the dataset, leaving a whole cell population.

[1] = Pharmacokinetics of MK2.III in CD-1 mice (HPLC-MS/MS); assay type: in vivo, CD-1 mouse
Description: We investigated the pharmacokinetics (PK) and bioavailability of small molecules (MK2.III) with intraperitoneal and intravenous injection before studying its tumor suppressor properties in combination with DNA-damaging agents. For this set of experiments CD-1 mouse line (male,7 weeks, body weight of 23–25 g, n = 198, Charles River) was used with a one-time intraperitoneal injection (IP) of 2, 10, and 50 mg/kg doses of the MK2.III or 2 mg/kg intravenous injection (IV) of the same drug. The small molecule was prepared using PBS containing 10% DMSO. MK2.III was isolated from mouse serum using protein settling method with acetonitrile and drug concentrations were detected using HPLC – MS/MS.
Blood samples were obtained from the retro-orbital sinus (at […] for IV groups; at […] for IP groups, respectively) in polypropylene tubes containing 20 μl of 5% EDTA. Blood plasma was separated by centrifugation at 1500 g for 10 min and was stored at -80 °C until analysis. Data were obtained from six animals per time.
An Agilent 1260 Infinity system, a hybrid triple-quadrupole mass spectrometer, and QTRAP 5500 electrospray ionization were used for determining the MK2.III concentration in blood plasma. Separations were achieved using a YMC Triart C18 50 × 2,1 mm, 1,9 μm column. The mobile phase consisted of A (0.1% aqueous formic acid) and B (0.1% formic acid in acetonitrile). The gradient elution t = 0, A:B 95:5; t = 2 min A:B 5:95; t = 2.1 A:B 5:95; t = 2.2 A:B 95:5; t = 2.8 A:B 95:5; flow rate was 0.5 mL min − 1; Retention time—2.8 min. The injection volume was 2 μL. The temperature of the column was set at 40 °C. Tolbutamide was selected as an internal standard. Thawed plasma (45 μL) was transferred to a microtube (1.1 mL volume), treated with a standard solution (5 μL) of the analytes in acetonitrile: water (1:1), stirred on a vortex mixer for 10 s, treated with tolbutamide solution (200 ng/ml), stirred again on the vortex mixer for 10 s, and then proteins were precipitated in the cold at + 4 °C for 15 min, centrifuged for 10 min at 1500 g. The supernatant (150 µl) was transferred to a clean 96-well plate for HPLC–MS/MS analysis. Samples were stored at a temperature not exceeding -70 °C until analysis. The calculation of pharmacokinetic parameters was performed by using Phoenix® WinNonlin® software, version 6.3 (Pharsight Corp., Cary, NC, USA).

[2] = 2 mg/kg intraperitoneal, mice serum
[3] = 10 mg/kg intraperitoneal, mice serum
[4] = 50 mg/kg intraperitoneal, mice serum

With `O=C1NCCc2[nH]c(-c3ccnc(-c4cnc5ccccc5c4)c3)cc21` [MK2.III] the “Viable cells (%)” value (NCI-H69 cells; Table 1 dose response, agent alone 0.321 µM (lowest dose), 48 h) was 87.4%, the “Viable cells (%)” value (NCI-H69 cells; Table 1 dose response, agent alone 0.626 µM, 48 h) was 90.2% and the “Viable cells (%)” value (NCI-H69 cells; Table 1 dose response, agent alone 1.25 µM, 48 h) was 87.3%. The “Viable cells (%)” value (NCI-H69 cells; Table 1 dose response, agent alone 2.5 µM, 48 h) was 88.4%, the “Viable cells (%)” value (NCI-H69 cells; Table 1 dose response, agent alone 5.0 µM (highest dose), 48 h) was 83.5% and the “Viable cells (%)” value (NCI-H69 cells; Table 2, VP-16 0 µM (inhibitor alone: MK2.III 1.0 µM or SB203580 2.5 µM), DMSO control 74.6%) was 66.1%. The AUClast [1, 2] was 1,99 hr*ng/ml, the Cmax [1, 2] was 2,15 ng/ml and the MRTlast [1, 2] was 1,28 hr. The Tmax [1, 2] was 2 h, the “Highest concentration of the drug in serum” value ([1]; 2 mg/kg intravenous, at the time of the injection) was 11 ng/mL and the Serum concentration ([1]; 2 mg/kg intravenous, one-hour interval) was 2.15 ng/mL. It also gave an AUCinf [1, 3] of 203 ng·h/mL, an AUClast [1, 3] of 130 ng·h/mL and a Cl/F [1, 3] of 821 mL/min/kg. For the same molecule, the Cmax [1, 3] was 38,3 ng/ml, the Kel [1, 3] was 0,05 1/hr and the MRTinf [1, 3] was 21,7 hr. The MRTlast [1, 3] was 8,59 hr, the T1/2 [1, 3] was 14,4 hr and the Tmax [1, 3] was 0,5 hr. For the same molecule, the Vz/F [1, 3] was 1027 L/kg, the AUCinf [1, 4] was 548 ng·h/mL and the AUClast [1, 4] was 227 ng·h/mL. For the same molecule, the Cl/F [1, 4] was 1520 mL/min/kg, the Cmax [1, 4] was 42,4 ng/ml and the Kel [1, 4] was 0,02 1/hr. The MRTinf [1, 4] was 42,3 hr, the MRTlast [1, 4] was 10,3 hr and the T1/2 [1, 4] was 28,3 hr. For the same molecule, the Tmax [1, 4] was 0,5 hr, the Vz/F [1, 4] was 3718 L/kg and the Cmax ([1]; higher doses (10 and 50 mg/kg) intraperitoneal, within 30 min after injection) was “around 40 ng/ml”. The Linearity of pharmacokinetics ([1]; range of 2-50 mg/kg dose, intraperitoneal) was “does not represent linearity”.

— article PMC10517462, “Small molecule targeting of the p38/Mk2 stress signaling pathways to improve cancer treatment” (BMC Cancer, 2023)
